Data taken from patent US9643955B2, “2-pyridyloxy-3-nitrile-4-substituted orexin receptor antagonists” (MERCK SHARP & DOHME CORP., priority 2012, dated 2017).

Legend:
hOX1R [1] = target: T1, hOX1R (Homo sapiens, UniProt O43613); test: FLIPR Ca2+ Flux Assay, hOX1R; assay type: cell-based; parameters: expressed in transfected cells; host or cells: CHO cells; details: CHO cells expressing orexin-1 receptor; agonist 70 pM Ala-6,12 orexin-A
T1 sequence (O43613 1-425): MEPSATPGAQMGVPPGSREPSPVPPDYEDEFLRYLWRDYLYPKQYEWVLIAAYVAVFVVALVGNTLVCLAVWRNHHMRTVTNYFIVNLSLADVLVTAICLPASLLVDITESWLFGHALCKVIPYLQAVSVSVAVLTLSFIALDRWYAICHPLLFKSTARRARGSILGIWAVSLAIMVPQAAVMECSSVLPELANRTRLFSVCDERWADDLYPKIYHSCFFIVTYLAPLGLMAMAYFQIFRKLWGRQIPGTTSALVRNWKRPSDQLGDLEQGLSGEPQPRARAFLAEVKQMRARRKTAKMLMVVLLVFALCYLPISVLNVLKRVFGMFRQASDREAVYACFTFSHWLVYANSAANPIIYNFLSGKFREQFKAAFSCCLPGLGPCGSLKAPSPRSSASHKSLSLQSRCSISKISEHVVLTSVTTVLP

human orexin-2 receptor = target: T2, human orexin-2 receptor (Homo sapiens, UniProt O43614); test: FLIPR Ca2+ Flux Assay, hOX2R; assay type: cell-based; details: CHO cells expressing the human orexin-2 receptor; agonist 70 pM Ala-6,12 orexin-A
T2 construct: expressed in transfected cells; host or cells: CHO cells
T2 sequence (O43614 1-444): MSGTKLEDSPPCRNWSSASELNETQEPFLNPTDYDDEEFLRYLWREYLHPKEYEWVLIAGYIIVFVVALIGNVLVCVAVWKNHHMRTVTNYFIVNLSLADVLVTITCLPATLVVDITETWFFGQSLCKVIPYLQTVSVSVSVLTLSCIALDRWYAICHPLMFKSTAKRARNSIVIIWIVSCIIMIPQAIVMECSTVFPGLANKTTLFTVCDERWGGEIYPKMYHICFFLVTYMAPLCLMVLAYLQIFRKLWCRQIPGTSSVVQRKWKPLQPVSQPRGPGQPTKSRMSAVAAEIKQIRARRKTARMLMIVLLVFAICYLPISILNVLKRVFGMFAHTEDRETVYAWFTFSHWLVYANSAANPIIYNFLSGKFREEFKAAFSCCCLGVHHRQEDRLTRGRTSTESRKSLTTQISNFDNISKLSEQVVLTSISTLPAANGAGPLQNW
Procedure: The utility of the compounds in accordance with the present invention as orexin receptor OX1R and/or OX2R antagonists may be readily determined without undue experimentation by methodology well known in the art, including the “FLIPR Ca^2+ Flux Assay” (Okumura et al., Biochem. Biophys. Res. Comm. 280:976-981, 2001). In a typical experiment the OX1 and OX2 receptor antagonistic activity of the compounds of the present invention was determined in accordance with the following experimental method. For intracellular calcium measurements, Chinese hamster ovary (CHO) cells expressing the rat orexin-1 receptor or the human orexin-2 receptor, are grown in Iscove's modified DMEM containing 2 mM L-glutamine, […], 1% hypoxanthine-thymidine supplement, 100 U/ml penicillin, 100 μg/ml streptomycin and 10% heat-inactivated fetal calf serum (FCS). The cells are seeded at 20,000 cells/well into Becton-Dickinson black 384-well clear bottom sterile plates coated with poly-D-lysine. All reagents were from GIBCO-Invitrogen Corp. The seeded plates are incubated overnight at 37° C. and 5% CO2. Ala-6,12 human orexin-A as the agonist is prepared as a 1 mM stock solution in 1% bovine serum albumin (BSA) and diluted in assay buffer (HBSS containing 20 mM HEPES, 0.1% BSA and 2.5 mM probenecid, pH7.4) for use in the assay at a final concentration of 70 pM. Test compounds are prepared as 10 mM stock solution in DMSO, then diluted in 384-well plates, first in DMSO, then assay buffer. On the day of the assay, cells are washed 3 times with 100 μl assay buffer and then incubated for 60 min (37° C., 5% CO2) in 60 μl assay buffer containing 1 μM Fluo-4AM ester, 0.02% pluronic acid, and 1% BSA. The dye loading solution is then aspirated and cells are washed 3 times with 100 μl assay buffer. 30 μl of that same buffer is left in each well. Within the Fluorescent Imaging Plate Reader (FLIPR, Molecular Devices), test compounds are added to the plate in a volume of 25 μl, incubated for 5 min and finally 25 μl of agonist is added. Fluorescence is measured for each well at 1 second intervals for 5 minutes and the height of each fluorescence peak is compared to the height of the fluorescence peak induced by 70 pM Ala-6,12 orexin-A with buffer in place of antagonist. For each antagonist, IC50 value (the concentration of compound needed to inhibit 50% of the agonist response) is determined Alternatively, compound potency can be assessed by a radioligand binding assay (described in Bergman et. al. Bioorg. Med. Chem. Lett. 2008, 18, 1425-1430) in which the inhibition constant (Ki) is determined in membranes prepared from CHO cells expressing either the OX1 or OX2 receptor. The intrinsic orexin receptor antagonist activity of a compound which may be used in the present invention may be determined by these assays.

hOX1R [2] = target: T1, hOX1R; test: radioligand binding assay, hOX1R; parameters: expressed in transfected cells; host or cells: membranes of CHO cells; details: membranes prepared from CHO cells expressing the OX1 receptor; read-out: hOX1R BIND hKi
Procedure: (§1) The utility of the compounds in accordance with the present invention as orexin receptor OX1R and/or OX2R antagonists may be readily determined without undue experimentation by methodology well known in the art, including the “FLIPR Ca^2+ Flux Assay” (Okumura et al., Biochem. Biophys. Res. Comm. 280:976-981, 2001). In a typical experiment the OX1 and OX2 receptor antagonistic activity of the compounds of the present invention was determined in accordance with the following experimental method. For intracellular calcium measurements, Chinese hamster ovary (CHO) cells expressing the rat orexin-1 receptor or the human orexin-2 receptor, are grown in Iscove's modified DMEM containing 2 mM L-glutamine, […], 1% hypoxanthine-thymidine supplement, 100 U/ml penicillin, 100 μg/ml streptomycin and 10% heat-inactivated fetal calf serum (FCS). The cells are seeded at 20,000 cells/well into Becton-Dickinson black 384-well clear bottom sterile plates coated with poly-D-lysine. All reagents were from GIBCO-Invitrogen Corp. The seeded plates are incubated overnight at 37° C. and 5% CO2. Ala-6,12 human orexin-A as the agonist is prepared as a 1 mM stock solution in 1% bovine serum albumin (BSA) and diluted in assay buffer (HBSS containing 20 mM HEPES, 0.1% BSA and 2.5 mM probenecid, pH7.4) for use in the assay at a final concentration of 70 pM. Test compounds are prepared as 10 mM stock solution in DMSO, then diluted in 384-well plates, first in DMSO, then assay buffer. On the day of the assay, cells are washed 3 times with 100 μl assay buffer and then incubated for 60 min (37° C., 5% CO2) in 60 μl assay buffer containing 1 μM Fluo-4AM ester, 0.02% pluronic acid, and 1% BSA. The dye loading solution is then aspirated and cells are washed 3 times with 100 μl assay buffer. 30 μl of that same buffer is left in each well. Within the Fluorescent Imaging Plate Reader (FLIPR, Molecular Devices), test compounds are added to the plate in a volume of 25 μl, incubated for 5 min and finally 25 μl of agonist is added. Fluorescence is measured for each well at 1 second intervals for 5 minutes and the height of each fluorescence peak is compared to the height of the fluorescence peak induced by 70 pM Ala-6,12 orexin-A with buffer in place of antagonist. […] The intrinsic orexin receptor antagonist activity of a compound which may be used in the present invention may be determined by these assays.

hOX2R = target: T3, hOX2R (Homo sapiens, UniProt O43614); test: radioligand binding assay, hOX2R; details: membranes prepared from CHO cells expressing the OX2 receptor; read-out: hOX2R BIND hKi
T3 construct: expressed in transfected cells; host or cells: membranes of CHO cells
T3 sequence (O43614 1-444): T2 sequence (O43614 1-444)
Procedure: as §1

Structure (SMILES): Cc1ccnc(O[C@@H]2CC[C@@H](C)N(C(=O)c3cccc(F)c3-n3nccn3)C2)c1C#N [Example 10, 2-{[(3R,6R)-1-{[3-fluoro-2-(2H-1,2,3-triazol-2-yl)phenyl]carbonyl}-6-methylpiperidin-3-yl]oxy}-4-methylpyridine-3-carbonitrile]
- IC50 (hOX1R [1]): 3.65 µM
- IC50 (human orexin-2 receptor): 42.6 nM

Structure (SMILES): COc1ccc(C(=O)N2C[C@H](Oc3nccc(C)c3C#N)CC[C@H]2C)c(-n2nccn2)c1 [Example 9, 2-{[(3R,6R)-1-{[4-methoxy-2-(2H-1,2,3-triazol-2-yl)phenyl]carbonyl}-6-methylpiperidin-3-yl]oxy}-4-methylpyridine-3-carbonitrile]
- Ki (hOX1R [2]): 5660 nM
- Ki (hOX2R): 60 nM

Structure (SMILES): Cc1ccnc(O[C@@H]2CC[C@@H](C)N(C(=O)c3ccccc3-n3nccn3)C2)c1C#N [Example 2, 4-Methyl-2{[(3R,6R)-6-methyl-1-{[2-(2H-1,2,3-triazol-2-yl)phenyl]carbonyl}piperidin-3-yl]oxy}pyridine-3-carbonitrile]
- IC50 (hOX1R [1]): 0.464 µM
- IC50 (human orexin-2 receptor): 9.8 nM

Structure (SMILES): Cc1ccnc(O[C@@H]2CC[C@@H](C)N(C(=O)c3cnccc3-n3nccn3)C2)c1C#N [Example 4, 4-methyl-2-{[(3R,6R)-6-methyl-1-{[4-(2H-1,2,3-triazol-2-yl)pyridin-3-yl]carbonyl}piperidin-3-yl]oxy}pyridine-3-carbonitrile]
- Ki (hOX1R [2]): 1290 nM
- Ki (hOX2R): 54 nM

Structure (SMILES): CSc1ccnc(O[C@@H]2CC[C@@H](C)N(C(=O)c3ccccc3-n3nccn3)C2)c1C#N [Example 1, 4-(Methylsulfanyl)-2-{[(3R,6R)-6-methyl-1-{[2-(2H-1,2,3-triazol-2-yl)phenyl]carbonyl}-piperidin-3-yl]oxy}pyridine-3-carbonitrile]
- IC50 (hOX1R [1]): 7.44 µM
- IC50 (human orexin-2 receptor): 39 nM

Structure (SMILES): Cc1ccc(-n2nccn2)c(C(=O)N2C[C@H](Oc3nccc(C)c3C#N)CC[C@H]2C)c1 [Example 11, 4-methyl-2-{[(3R,6R)-6-methyl-1-{[5-methyl-2-(2H-1,2,3-triazol-2-yl)phenyl]carbonyl}piperidin-3-yl]oxy}pyridine-3-carbonitrile]
- Ki (hOX1R [2]): 7 nM
- Ki (hOX2R): 24 nM

Structure (SMILES): Cc1ccnc(O[C@@H]2CC[C@@H](C)N(C(=O)c3ccc(Cl)cc3-n3nccn3)C2)c1C#N [Example 3, 2-{[(3R,6R)-1-{[4-Chloro-2(2H-1,2,3-triazol-2-yl)phenyl]carbonyl}-6-methylpiperidin-3-yl]oxy}-4-methylpyridine-3-carbonitrile]
- IC50 (hOX1R [1]): 3.71 µM
- IC50 (human orexin-2 receptor): 73.6 nM

Structure (SMILES): Cc1ccnc(O[C@@H]2CC[C@@H](C)N(C(=O)c3cccc(C)c3-n3nccn3)C2)c1C#N [Example 7, 4-methyl-2-{[(3R,6R)-6-methyl-1-{[3-methyl-2-(2H-1,2,3-triazol-2-yl)phenyl]carbonyl}piperidin-3-yl]oxy}pyridine-3-carbonitrile]
- IC50 (hOX1R [1]): 0.457 µM
- IC50 (human orexin-2 receptor): 20.3 nM

Structure (SMILES): Cc1ccnc(O[C@@H]2CC[C@@H](C)N(C(=O)c3ccc(F)cc3-n3nccn3)C2)c1C#N [Example 8, 2-{[(3R,6R)-1-{[4-fluoro-2-(2H-1,2,3-triazol-2-yl)phenyl]carbonyl}-6-methylpiperidin-3-yl]oxy}-4-methylpyridine-3-carbonitrile]
- IC50 (hOX1R [1]): 7.39 µM
- IC50 (human orexin-2 receptor): 59.8 nM

Structure (SMILES): COc1cccc(-n2nccn2)c1C(=O)N1C[C@H](Oc2nccc(C)c2C#N)CC[C@H]1C [Example 6, 2-{[(3R,6R)-1-{[2-methoxy-6-(2H-1,2,3-triazol-2-yl)phenyl]carbonyl}-6-methylpiperidin-3-yl]oxy}-4-methylpyridine-3-carbonitrile]
- IC50 (hOX1R [1]): 1.16 µM
- IC50 (human orexin-2 receptor): 67.6 nM

Structure (SMILES): COc1ccc(C(=O)N2C[C@H](Oc3nccc(C)c3C#N)CC[C@H]2C)c(-n2nccn2)n1 [Example 12, 2-{[(3R,6R)-1-{[6-methoxy-2-(2H-1,2,3-triazol-2-yl)pyridin-3-yl]carbonyl}-6-methylpiperidin-3-yl]oxy}-4-methylpyridine-3-carbonitrile]
- IC50 (hOX1R [1]): 10 µM
- IC50 (human orexin-2 receptor): 280 nM

Structure (SMILES): Cc1ccnc(O[C@@H]2CC[C@@H](C)N(C(=O)c3c(F)cccc3-n3nccn3)C2)c1C#N [Example 5, 2-{[(3R,6R)-1-{[2-fluoro-6-(2H-1,2,3-triazol-2-yl)phenyl]carbonyl}-6-methylpiperidin-3-yl]oxy}-4-methylpyridine-3-carbonitrile]
- Ki (hOX1R [2]): 3610 nM
- Ki (hOX2R): 34 nM
